Experimental data: patent US7351431B2, “Freeze-dried pharmaceutical preparation” (Dainippon Sumitomo Pharma Co., Ltd., priority 2001, dated 2008)

Assay: Content of drug solution in 2-methyl-2-propanol during stirring by Polytron or stirrer
Type: physicochemical
Details: about 40° C.; for Content [vs. 0 h %]: about 4.0 mg/mL in 2-methyl-2-propanol
Protocol: Then, whether the content and analogous substance are affected by stirring in a homomixer was considered. To cis[((1R,2R)-1,2-cyclohexanediamine-N,N′)bis(tetradecanoyloxy)]platinum(II) monohydrate was added 2-methyl-2-propanol to a liquid formulation concentration of about 4.0 mg/mL. This was prepared in two Erlenmeyer flasks. One Erlenmeyer flask was stirred with a stirrer at a liquid temperature of about 40° C. after ultrasonication. The other Erlenmeyer flask was stirred at about 10000 rpm at a liquid temperature of about 40° C. using Polytron pulverizer (pulverization diameter G8) manufactured by IKA that pulverizes and dissolves by the same mechanism as a homogenizer. The stirring was continued with the time point when the bulk was dissolved as 0 hr. The drug solution was sampled with the lapse of time and the dissolution state was observed and the content and analogous substances were measured.

CCCCCCCCCCCCCC(=O)[O][Pt]1([O]C(=O)CCCCCCCCCCCCC)[NH][C@@H]2CCCC[C@H]2[NH]1 [bulk, cis[((1R,2R)-1,2-cyclohexanediamine-N,N′)bis(tetradecanoyloxy)]platinum(II) monohydrate]
Content [vs. 0 h %] (Polytron, stirring time 0): 100% | Content [vs. 0 h %] (Polytron, stirring time 0.5 h): 99.5% | Content [vs. 0 h %] (Polytron, stirring time 1 h): 99.4% | Content [vs. 0 h %] (Polytron, stirring time 2 h): 100.9% | Content and analogous substances with the lapse of stirring time (any stirring method (Polytron or stirrer)): showed no change | Content [vs. 0 h %] (stirrer, stirring time 0): 100% | Content [vs. 0 h %] (stirrer, stirring time 0.5 h): 100.9% | Content [vs. 0 h %] (stirrer, stirring time 1 h): 100.2% | Content [vs. 0 h %] (stirrer, stirring time 2 h): 103.1%
